According to PMC8639500, “SSTP1, a Host Defense Peptide, Exploits the Immunomodulatory IL6 Pathway to Induce Apoptosis in Cancer Cells” (Frontiers in Immunology, 2021):
Values belong to the compound of their own block, whether it stands above or below them. Residues, ends and D or L forms follow the SMILES beside them.

Legend:
Assay type in all cases: cell-based, human
HSC-4 cells [1] = assay: MTT growth inhibition by SSTP1 with or without IL6 pathway inhibitors; conditions: 4h SSTP1 (10 μM), pre-treatment LMT-28 60 μM 1.5 h, Anti-IL6Rα 10µg/ml 2h, SC144 40 μM 2h
Experimental: (§1) Concentration- and time-dependent effects on cell growth inhibition were measured using the MTT [3-(4,5-dimethylthiazol-2-yl)−2,5-diphenyltetrazolium bromide] assay. 5000 cells/well were seeded in 96-well plate and were treated with peptides for 48h. Cells were incubated with MTT (1.25 mg/ml) for 2 hours at 37°C. The blue formazan crystals were solubilized in isopropanol and read at 595 nm.
Figure 8 SSTP1-induced pcJUN activation depends on JNK and on gp130 and IL6Rα. (A) HSC-4 cells treated with SSTP1 (30 minute) and the indicated inhibitors were used for western blot analysis of the indicated molecules (B) Densitometric analysis was done for the bands of (a) and relative phosphorylation based on untreated is plotted. (C) The cells treated with SSTP1 (30 minutes) and IL6Rα antibody or SC144 were used for western blot analysis of the indicated molecules. (D) Densitometric analysis was done for the bands of (C) and relative phosphorylation based on untreated is plotted. (E) Growth inhibition analyzed by MTT assay after 4h treatment with SSTP1(10 μM) with or without the inhibitors. LMT-28 (60 μM). For all the experiments SSTP1 (10 μM) was used with or without LMT-28 (60 μM), Ruxolitinib (30 μM) or SP600125 (20 μM), Anti-IL6Rα (10µg/ml) or SC144 (40 μM). […]

HSC-4 cells [2] = assay: MTT growth inhibition assay, HSC-4 cells; conditions: 48 h
Experimental: as §1
IC50 value for HSC-4 cells and MDA-MB-231cells were calculated with Dose-response model. Analysis of dose-response data is made available through the ‘drc’ package in R environment for statistical computing. […] The statistical significance between two groups was analyzed using Students paired two-tailed t-test.
Figure 1 SSTP1 induces apoptosis in oral cancer cells (A) HSC-4 cells were treated with peptides SSTP1 and SSTP2 at different concentrations in 0.5% DMEM for 48 h, and MTT assay was performed to calculate % growth inhibition. […] (C)The quantified populations are represented in the graph. […] (D) The HSC-4 cells treated with 10 μM SSTP1 or SSTP2 for indicated time intervals were used for western blot analyses (E) Densitometric analysis was done for the bands, and fold change based on 0min was calculated. […]

MDA-MB-231 cells = conditions: 48 h
Experimental: as §1
IC50 value for HSC-4 cells and MDA-MB-231cells were calculated with Dose-response model. Analysis of dose-response data is made available through the ‘drc’ package in R environment for statistical computing. The “drm” function in the package “drc” is a general model fitting function for analysis of concentration/dose/time-effect/response data and the four parameter a log-logistic model was fitted for estimating the slope, lower, upper and IC50 values. […] The statistical significance between two groups was analyzed using Students paired two-tailed t-test.
Figure 10 Sensitivity of cancer cells to SSTP1 depends on the level of IL6Rα. […] (C) Growth inhibition analyzed by MTT assay using 10 μM SSTP1 treated for 48h. (D) Growth inhibitory curve of SSTP1 for MDA-MB-231 cells and HEK-293 cells analyzed after 48h treatment with SSTP1 and Hemolysis induced by SSTP1 on human RBC. […] (F) The blots were quantified using ImageJ, and the graphs were plotted. *p < .05, **p < .01, ***p < .001.

Structure (SMILES): O=C(NNc1nc2cc(F)ccc2n2cccc12)c1cnccn1 [SC144]
effect on SSTP1-induced growth inhibition (HSC-4 cells [1]): significantly inhibited

IC50 (MDA-MB-231 cells): 4.5 µM
Structure (SMILES): CC[C@H](C)[C@H](NC(=O)[C@H](CC(C)C)NC(=O)[C@H](CC(C)C)NC(=O)[C@@H]1CCCN1C(=O)[C@H](CC(C)C)NC(=O)[C@@H](N)Cc1ccccc1)C(=O)N[C@@H](CO)C(=O)N[C@@H](C)C(=O)N[C@@H](CC(C)C)C(=O)N[C@H](C(=O)N[C@@H](CO)C(=O)N[C@@H](CC(C)C)C(=O)N[C@@H](Cc1ccccc1)C(=O)N1CCC[C@H]1C(=O)N[C@@H](CCCCN)C(=O)N[C@@H](CC(C)C)C(=O)NCC(=O)N[C@@H](CCCCN)C(=O)O)[C@@H](C)O [SSTP1] (H-FLPLLISALTSLFPKLGK-OH)
IC50 (HSC-4 cells [2]): 10.2 µM

Structure (SMILES): CC[C@H](C)[C@H](NC(=O)[C@H](CCCNC(=N)N)NC(=O)[C@H](CCCNC(=N)N)NC(=O)[C@@H]1CCCN1C(=O)[C@H](CC(C)C)NC(=O)[C@@H](N)Cc1ccccc1)C(=O)N[C@@H](CO)C(=O)N[C@@H](C)C(=O)N[C@@H](CCCNC(=N)N)C(=O)N[C@H](C(=O)N[C@@H](CO)C(=O)N[C@@H](CC(C)C)C(=O)N[C@@H](Cc1ccccc1)C(=O)N1CCC[C@H]1C(=O)N[C@@H](CCCCN)C(=O)N[C@@H](CCCNC(=N)N)C(=O)NCC(=O)N[C@@H](CCCCN)C(N)=O)[C@@H](C)O [SSTP2] (H-FLPRRISARTSLFPKRGK-NH2)
cytotoxicity (growth inhibition) in words (HSC-4 cells [2]; HSC-4 cells, MTT): negligible cytotoxicity
